Measurements published in PubChem BioAssay (NCI).
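A five-concentration, 48-hour dose response in 96-well plates underlies each endpoint, interpolated linearly between surrounding concentrations. The concentration for full growth arrest is given as TGI.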

Columns and labels:
Test in all cases: NCI-60 cell line screen, 48 h
[1] = system: T-47D breast
[2] = system: RXF 393 renal
[3] = system: MDA-MB-231 breast
[4] = system: A549 NSCLC
[5] = system: SK-OV-3 ovarian
[6] = system: TK-10 renal
[7] = system: SF-268 CNS
[8] = system: HT29 colon
[9] = system: K-562 leukemia
[10] = system: OVCAR-8 ovarian
[11] = system: HOP-62 NSCLC
[12] = system: UACC-257 melanoma
[13] = system: SK-MEL-28 melanoma
[14] = system: MCF7 breast
[15] = system: EKVX NSCLC
[16] = system: PC-3 prostate
[17] = system: HCC-2998 colon
[18] = system: BT-549 breast
[19] = system: MDA-MB-435
[20] = system: SN12C renal
[21] = system: UACC-62 melanoma
[22] = system: MOLT-4 leukemia
[23] = system: HCT-15 colon
[24] = system: IGROV1 ovarian
[25] = system: RPMI-8226 leukemia
[26] = system: M14 melanoma
[27] = system: SNB-75 CNS
[28] = system: MALME-3M melanoma
[29] = system: SF-295 CNS
[30] = system: SNB-19 CNS
[31] = system: NCI-H522 lung
[32] = system: HS 578T breast
[33] = system: CAKI-1 renal
[34] = system: 786-0 renal
[35] = system: A498 renal
[36] = system: SK-MEL-5 melanoma
[37] = system: HOP-92 NSCLC
[38] = system: NCI-H23 lung
[39] = system: COLO 205 colon
[40] = system: ACHN renal
[41] = system: KM12 colon
[42] = system: SW-620 colon
[43] = system: UO-31 renal
[44] = system: OVCAR-4 ovarian
[45] = system: SR leukemia
[46] = system: LOX IMVI melanoma
[47] = system: OVCAR-3 ovarian
[48] = system: DU-145 prostate
[49] = system: SK-MEL-2 melanoma
[50] = system: HCT-116 colon
[51] = system: OVCAR-5 ovarian
[52] = system: NCI-H460 lung
[53] = system: U251 CNS
[54] = system: NCI/ADR-RES ovarian

Q: For `CN(C)CCC=C1c2ccccc2C=Cc2ccccc21`, which TGI [1] is on record?
A: 44.8 µM

Q: What about the TGI [2] of the same compound?
A: 34.3 µM

Q: What about the TGI [3] of the same compound?
A: 31.5 µM

Q: And the TGI [4]?
A: 39.6 µM

Q: What about the TGI [5] of the same compound?
A: 31.4 µM

Q: And the TGI [6]?
A: 29.8 µM

Q: And the TGI [7]?
A: 30.9 µM

Q: What about the TGI [8] of the same compound?
A: 19.2 µM

Q: What about the TGI [9] of the same compound?
A: 56 µM

Q: What about the TGI [10] of the same compound?
A: 30.5 µM

Q: What about the TGI [11] of the same compound?
A: 33 µM

Q: What about the TGI [12] of the same compound?
A: 28.3 µM

Q: And the TGI [13]?
A: 31.3 µM

Q: And the TGI [14]?
A: 29.9 µM

Q: And the TGI [15]?
A: 28.7 µM

Q: And the TGI [16]?
A: 35 µM

Q: What about the TGI [17] of the same compound?
A: 18.5 µM

Q: And the TGI [18]?
A: 31.8 µM

Q: What about the TGI [19] of the same compound?
A: 36.5 µM

Q: And the TGI [20]?
A: 32.5 µM

Q: And the TGI [21]?
A: 30.3 µM

Q: What about the TGI [22] of the same compound?
A: 42.6 µM

Q: What about the TGI [23] of the same compound?
A: 33.1 µM

Q: And the TGI [24]?
A: 31.5 µM

Q: And the TGI [25]?
A: 52.3 µM

Q: What about the TGI [26] of the same compound?
A: 32.6 µM

Q: And the TGI [27]?
A: 31.1 µM

Q: And the TGI [28]?
A: 31.9 µM

Q: And the TGI [29]?
A: 32.8 µM

Q: What about the TGI [30] of the same compound?
A: 41.7 µM

Q: And the TGI [31]?
A: 37 µM

Q: What about the TGI [32] of the same compound?
A: 42.3 µM

Q: And the TGI [33]?
A: 35.7 µM

Q: And the TGI [34]?
A: 30.5 µM

Q: And the TGI [35]?
A: 29.4 µM

Q: And the TGI [36]?
A: 27.5 µM

Q: What about the TGI [37] of the same compound?
A: 34.9 µM

Q: And the TGI [38]?
A: 35.1 µM

Q: What about the TGI [39] of the same compound?
A: 29.3 µM

Q: And the TGI [40]?
A: 30.9 µM

Q: And the TGI [41]?
A: 35.3 µM

Q: And the TGI [42]?
A: 38.2 µM

Q: And the TGI [43]?
A: 32 µM

Q: What about the TGI [44] of the same compound?
A: 68.1 µM

Q: What about the TGI [45] of the same compound?
A: 42.8 µM

Q: And the TGI [46]?
A: 31.6 µM

Q: And the TGI [47]?
A: 31.1 µM

Q: And the TGI [48]?
A: 35.4 µM

Q: What about the TGI [49] of the same compound?
A: 32.3 µM

Q: What about the TGI [50] of the same compound?
A: 30.7 µM

Q: What about the TGI [51] of the same compound?
A: 29.5 µM

Q: What about the TGI [52] of the same compound?
A: 28.9 µM

Q: What about the TGI [53] of the same compound?
A: 29.8 µM

Q: And the TGI [54]?
A: 31.2 µM
